# Experimental data as given in patent publication US20180193336A1, “SPRAY DRY FORMULATIONS” (Pulmokine, Inc., priority 2013, published 2018).
# “And” between values parts separate entries of the source, which are not always exact repeats. Identical values can stand only once. Like-named read-outs stand apart in the source and are kept apart here.
# What was measured:
# [1] = test system: PDGFBB stimulated phosphorylation of ERK1 and ERK2; assay: PDGFBB stimulated phosphorylation of ERK1 and ERK2 in human fetal lung fibroblasts; format: cell-based
# Description: (§1) Data shown are mean±SEM. […] PK10453=structure 2; PK10571=structure 2a. Platelet derived growth factor receptor alpha=PDGFR-alpha=PDGFR-α=PDGF receptor alpha=PDGF alpha receptor. Platelet derived growth factor receptor beta=PDGFR-beta=PDGFRβ=PDGF receptor beta=PDGF beta receptor.
# PDGFRbeta = PDGFRbeta (Homo sapiens, UniProt P09619); details: FIG. 25
# Procedure: A Z-lyte kinase assay was performed to determine the inhibition of PDGFRalpha and PDGFRbeta mediated phosphorylation by PK10453 (Structure 2). Ten point titration curves were modeled to calculate the IC50 (Invitrogen Select Screen®).
# [2] = Pharmacokinetic study, inhaled vs intravenous, lung and plasma levels; format: in vivo, rat; details: [(AUClung/AUCplasma)respiratory]/[(AUClung/AUCplasma)IV]
# Procedure: PK10453 (Structure 2) was administered intravenously or by inhalation to animals, which were then euthanized at time 0, 10, 20, and 60 min (n=3 each time point). Blood samples were taken by cardiac puncture, and the lungs excised. The lungs were homogenized and PK10453 (Structure 2) extracted with a 1:3 mixture of acetonitrile:methanol. Similarly, plasma was extracted with a 1:3 mixture of acetonitrile:methanol. Drug was assayed by LC MS/MS (PharmOptima Inc., Portage Mich.). First order exponential curves were fit to the data with Excel. AUC was determined with the trapezoidal method of integration.
# For the pharmacokinetic study, the concentration of PK10453 (Structure 2) in lung when administered by inhalation was compared to the concentration achieved with IV administration. As described in Moren “Aerosols in medicine: principles, diagnosis, and therapy.” Amsterdam; New York: Elsevier, xx, 429 (1993) and Phalen et al., “Inhalation exposure methodology.” Environ Health Perspect 56:23-34 (1984)), it is possible to estimate the pharmacokinetic advantage of inhalation relative to intravenous administration, Rd, by comparing the AUC of a plot of the drug concentration as a function of time following respiratory and IV administration: […]
# The pharmacokinetic data was modeled to a first order exponential curve, and the AUC calculated from the curves (see Table 2). […]
# rat MCT+PN model [3] = assay: Telemetry of pulmonary artery pressure in rat MCT+PN model; format: in vivo; details: for PA systolic pressure: separate MCT+PN telemetry study
# Procedure: Pneumonectomy and implantation of a TRM53P telemetry monitor in the pulmonary artery (Telemetry Research, New Zealand and ADInstruments, Colorado) was carried out in rats. Two weeks after MCT, PK10453 (Structure 2) was administered three times daily for 1 week. […] The two groups underwent 4 min exposures of either the vehicle control or PK10453 (Structure 2). Sampling of PA pressure was performed 5 min before each morning dose in ambulatory animals in room air (estimated atmospheric pressure 716 mm Hg based on elevation of animal facility). […] Telemetry data was obtained for 10 min daily before each morning dose for this protocol.
# [4] = Body weights of treated rats; format: in vivo, rat; details: D4 and D8 groups; FIG. 19
# [5] = Fluorescent imaging of lung distribution after inhalation with IR780 tracer; format: in vivo, rat; details: 2 min inhalation with IR780 tracer
# Procedure: A near IR fluorescent tracer, IR-780, was added to the drug solution in the nebulizer to ensure dried aerosol particles contained both the drug and IR tracer. After a two min exposure, animals were placed under general anesthesia underwent intubation via tracheostomy, and the lungs were excised. OCT/PBS was infused via the pulmonary artery, the lung insufflated with air, and the lungs frozen in the vapor phase of liquid nitrogen. Serial approximate 2 mm sections of lung were imaged on a Licor Odyssey Imager.
# rat MCT+PN model [6] = assay: Pulmonary arteriole morphometry and occlusion analysis in rat MCT+PN model; format: in vivo
# Description: At the end of the study, the heart and lungs were removed from ventilated animals under general anesthesia. Heparinized saline was infused under pressure through the main pulmonary artery. The right upper lobe was immediately tied off and placed in liquid nitrogen for Western blot and NanoPro 100 assay analysis. The heart was removed, and the RV free wall, interventricular septum and LV free wall dissected and weighed. Buffered formalin (10%) was infused under pressure both through the pulmonary artery and the trachea. Morphometric analysis was performed on H&E stained formalin fixed tissue sectioned at 8 μm. The media area and lumen area of pulmonary arterioles were measured with Image J software by a technician blinded to treatment group. Measurements were made on 20 pulmonary arterioles per section. The ratio of the lumen area to the total media area was determined. This ratio normalizes the variation in total pulmonary arteriole area. In addition, occlusive analysis was performed in the monocrotaline plus pneumonectomy study (specifically efficacy study 5) according to the method of Homma et al., “Involvement of RhoA/Rho kinase signaling in protection against monocrotaline-induced pulmonary hypertension in pneumonectomized rats by dehydroepiandrosterone.” Am J Physiol Lung Cell Mol Physiol. Vol. 295:L71-8 (2008). Briefly, pre-capillary arterioles were assigned grade 0 for no evidence of neointimal lesions, grade 1 for less than 50% luminal occlusion, and grade 2 for greater than 50% occlusion. Masson Trichrome stains were performed on lung sections from the MCT+PN model.
# [7] = test system: PDGFBB stimulated AKT phosphorylation; assay: In cell Western, PDGFBB stimulated AKT phosphorylation in human fetal lung fibroblasts; format: cell-based; details: for IC50: Fibroblast
# Procedure: HLFs were maintained in subculture at no more than 6 passages in DMEM with 5% FBS and 4 mM Glutamax at 37° C., 5% CO2. HLFs were plated and grown to 70-80% confluence in 96 well plates then serum-starved for 48 hours. […] Antibodies were detected using IRDye 680LT goat anti-mouse IgG and IRDye 800 W goat α-rabbit IgG conjugated antibodies. After washing, the signal was quantified using an Odyssey Infrared Imaging System (LI-COR). Phosphoprotein signal (800 nm) was normalized to total protein signal (700 nm) acquired from each well and experimental duplicates on same plate were averaged and reported.
# [8] = test system: PDGFAA stimulated phosphorylation of ERK1 and ERK2; assay: PDGFAA stimulated phosphorylation of ERK1 and ERK2 in human fetal lung fibroblasts; format: cell-based; details: 1 uM; PDGFAA 10 ng/ml
# Description: as §1
# [9] = 8 min inhalation three times a day, two weeks
# Procedure for rat MCT model: At the end of the study RVSP pressure was measured; lung and heart fixed in formalin. For measurement of RVSP animals were sedated with isoflurane, intubated via a tracheostomy, and ventilated with a TOPOVENT pressure regulated ventilator (peak inspiratory pressure 18 cm H20, PEEP 5 cm). After sternotomy, a Scisense high fidelity catheter inserted via the RV apex.
# At the end of the study, the heart and lungs were removed from ventilated animals under general anesthesia. Heparinized saline was infused under pressure through the main pulmonary artery. […] The heart was removed, and the RV free wall, interventricular septum and LV free wall dissected and weighed. Buffered formalin (10%) was infused under pressure both through the pulmonary artery and the trachea. Morphometric analysis was performed on H&E stained formalin fixed tissue sectioned at 8 μm. The media area and lumen area of pulmonary arterioles were measured with Image J software by a technician blinded to treatment group. Measurements were made on 20 pulmonary arterioles per section. The ratio of the lumen area to the total media area was determined. This ratio normalizes the variation in total pulmonary arteriole area. […] Briefly, pre-capillary arterioles were assigned grade 0 for no evidence of neointimal lesions, grade 1 for less than 50% luminal occlusion, and grade 2 for greater than 50% occlusion.
# Chain of PDGFRbeta (P09619 600-962 limits assumed): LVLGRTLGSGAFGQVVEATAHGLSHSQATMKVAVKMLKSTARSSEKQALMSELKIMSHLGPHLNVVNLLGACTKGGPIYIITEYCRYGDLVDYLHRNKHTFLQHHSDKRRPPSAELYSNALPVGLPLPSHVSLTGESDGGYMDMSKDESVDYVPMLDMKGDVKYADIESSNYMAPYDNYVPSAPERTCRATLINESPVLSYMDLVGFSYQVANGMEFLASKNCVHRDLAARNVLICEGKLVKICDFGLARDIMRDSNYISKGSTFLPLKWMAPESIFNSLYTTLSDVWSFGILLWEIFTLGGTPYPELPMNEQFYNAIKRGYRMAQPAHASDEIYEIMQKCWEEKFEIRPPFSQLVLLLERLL
smiles,measurement,setting,value
"COc1cc(-c2cncc(N[C@@H](C)c3cccc(NC(=O)c4cncc(C)c4)c3)n2)ccc1O [PK10453, (S)—N-(3-(1-((6-(4-hydroxy-β-methoxyphenyl)pyrazin-2yl)amino)ethyl)phenyl)-5-methylnicotinamide]",decrease of PDGF BB stimulated ppERK1 and ppERK2 relative to imatinib,[1]; 1 uM and 10 uM,more effective
same,decrease of PDGFBB stimulated ppERK1 formation,"[1]; 1 uM, PDGF BB 10 ng/ml",effective
same,ratio diphosphorylated ERK2 to total ERK2 (ppERK2/ERK2),"[1]; PDGFAA or PDGFBB stimulation (10 ng/ml), 1 uM and 10 uM",significantly decreased
same,ratio diphosphorylated ERK1 to total ERK1 (ppERK1/ERK1),"[1]; PDGFAA or PDGFBB stimulation, 1 μM and 10 μM",significantly decreased
same,potency against PDGFR beta kinase domain relative to imatinib,PDGFRbeta,more potent than imatinib
same,"Rd, pharmacokinetic advantage of inhalation relative to intravenous administration",[2],44.6 fold and 45 fold and 44.58 fold
same,"end diastolic volume, ejection fraction, cardiac output, stroke work, difference between groups",rat MCT model,no significant differences
same,Lumen/Media ratio,rat MCT model; 8 min exposures,0.94±0.08
same,End systolic volume,rat MCT model; [9],99.5 µL
same,RV end systolic pressure,rat MCT model; [9],36.3±2.6 mm Hg
same,efficacy by inhalation in the MCT+PN model,rat MCT+PN model [3]; rat MCT+PN,effective in lowering pulmonary pressures
same,PA systolic pressure,rat MCT+PN model [3]; after five days of treatment,47.2±3.0 mm Hg
same,PA systolic pressure,rat MCT+PN model [3]; treatment day 9,50.5±7 mm Hg
same,body weight compared to vehicle,[4],trend to a slower rate of decline
same,spatial distribution in lung after inhalation,[5],well distributed throughout the lungs
same,Grade 2 occlusion lesions,rat MCT+PN model [6]; D4,28.5±4.2%
same,lumen area to media area ratio (L/M),"rat MCT+PN model [6]; D4, FIG. 7 PANEL C",0.33±0.06
same,Grade 2 occlusion lesions,rat MCT+PN model [6]; D8,11.4±4.1%
same,lumen area to media area ratio (L/M),"rat MCT+PN model [6]; D8, FIG. 7 PANEL C",0.72±0.05
same,lumen area to media area ratio (L/M),"rat MCT+PN model [6]; higher dose D8, FIG. 9",1.17±0.07
same,lumen area to media area ratio (L/M),"rat MCT+PN model [6]; lower dose D4, FIG. 9",0.75±0.14
same,IC50,"[7]; human fetal lung fibroblasts, 10 ng/ml PDGFBB, read-out: IC50 for PDGFBB stimulated AKT phosphorylation at Ser473",130 nM
same,IC50,"[7]; human fetal lung fibroblasts, 10 ng/ml PDGFBB, read-out: IC50 for PDGFBB stimulated AKT phosphorylation at Thr308",430 nM
same,IC50,"[7]; human fetal lung fibroblasts, legend of FIG. 2 PANEL C, read-out: IC50 for PDGFBB stimulation of pAKT(Ser473)",130 nM
same,IC50,"[7]; Homo sapiens, FIG. 26, each concentration in duplicate, read-out: IC50, PDGF BB stimulated pAKT in human lung fibroblasts",150 nM
same,IC50 for inhibiting PDGFBB stimulated AKT phosphorylation relative to imatinib,"[7]; fetal human lung fibroblasts, FIG. 18",lower IC50 concentration compared to imatinib
same,decrease of PDGF AA stimulated ppERK1 and ppERK2 formation,[8],equally effective
